In ChEMBL document CHEMBL1124893, “1,2,4-Triazolo[4,3-a]pyrazine derivatives with human renin inhibitory activity. 2. Synthesis, biological properties and molecular modeling of hydroxyethylene isostere derivatives” (J Med Chem, 1990):

target: T1, Renin (Homo sapiens, UniProt P00797); assay: Inhibition of human renin
T1 sequence (P00797 whole entry): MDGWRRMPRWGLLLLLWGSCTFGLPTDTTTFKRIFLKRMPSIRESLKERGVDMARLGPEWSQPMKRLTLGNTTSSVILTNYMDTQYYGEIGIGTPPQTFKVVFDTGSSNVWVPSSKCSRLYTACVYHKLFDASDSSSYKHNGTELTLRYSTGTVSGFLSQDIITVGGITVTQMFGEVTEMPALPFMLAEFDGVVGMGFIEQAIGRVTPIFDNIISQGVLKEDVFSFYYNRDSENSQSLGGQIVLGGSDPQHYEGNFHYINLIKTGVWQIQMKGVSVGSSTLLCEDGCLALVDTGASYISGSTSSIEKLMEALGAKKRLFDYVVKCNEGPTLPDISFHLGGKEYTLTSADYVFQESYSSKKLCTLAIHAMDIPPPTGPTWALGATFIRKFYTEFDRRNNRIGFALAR

| Compound | IC50 |
| --- | --- |
| CCCc1nc(-c2cccnc2)cn2c(C(Cc3cccnc3)C(=O)NC(CC3CCCCC3)C(O)CC(C(=O)NCCN)C(C)C)nnc12 (centres undefined) | 78 nM |
| CCCCNC(=O)[C@@H](CC(O)C(CC1CCCCC1)NC(=O)Cc1nnc2c(CCC)nc(-c3cccnc3)cn12)C(C)C (some centres undefined) | 26 nM |
| CCCc1nc(-c2cccnc2)cn2c(C(Cc3cccnc3)C(=O)NC(CC3CCCCC3)C(O)CC(C(=O)NCCN(C)C)C(C)C)nnc12 (single isomer, unassigned; less polar) | 8.6 nM |
| CCCc1nc(-c2cccnc2)cn2c(C(Cc3cccnc3)C(=O)NC(CC3CCCCC3)C(O)CC(C(=O)N(C)CCN(C)C)C(C)C)nnc12 (centres undefined) | 212 nM |
| CCCCNC(=O)C(CC(O)C(CC1CCCCC1)NC(=O)Cc1nnc2c(CCC)nc(-c3cccnc3)cn12)C(C)C (centres undefined) | 2.7 nM |
| CCCc1nc(-c2cccnc2)cn2c(C(Cc3cccnc3)C(=O)NC(CC3CCCCC3)C(O)CC(C(=O)N3CCOCC3)C(C)C)nnc12 (centres undefined) | 64 nM |
| CCCCNC(=O)C(CC(O)C(CC1CCCCC1)NC(=O)Cc1nnc2c(CC(C)C)nc(-c3ccccc3)cn12)C(C)C (centres undefined) | 30 nM |
| CCCc1nc(-c2cccnc2)cn2c(C(Cc3cccnc3)C(=O)NC(CC3CCCCC3)C(O)CC(C(=O)NCCN3CCNCC3)C(C)C)nnc12 (centres undefined) | 0.6 nM |
| CCCCN(C)C(=O)C(CC(O)C(CC1CCCCC1)NC(=O)C(Cc1cccnc1)c1nnc2c(CCC)nc(-c3cccnc3)cn12)C(C)C (centres undefined) | 41 nM |

More lines, in order of falling IC50, values ahead:

| IC50 | Compound |
| --- | --- |
| 0.6 nM | CCCc1nc(-c2cccnc2)cn2c(C(Cc3cccnc3)C(=O)NC(CC3CCCCC3)C(O)CC(C(=O)NCc3ccccn3)C(C)C)nnc12 (centres undefined) |
| 0.4 nM | CCCc1nc(-c2cccnc2)cn2c(C(Cc3cccnc3)C(=O)NC(CC3CCCCC3)C(O)CC(C(=O)NCCN3CCOCC3)C(C)C)nnc12 (centres undefined) |
| 0.3 nM | CCCc1nc(-c2cccnc2)cn2c(C(Cc3cccnc3)C(=O)NC(CC3CCCCC3)C(O)CC(C(=O)NCCCCO)C(C)C)nnc12 (centres undefined) |
| 0.3 nM | CCCc1nc(-c2cccnc2)cn2c(C(Cc3cccnc3)C(=O)NC(CC3CCCCC3)C(O)CC(C(=O)NCCN(C)C)C(C)C)nnc12 (stereo in doubt; e) |
| 0.2 nM | CCCCNC(=O)C(CC(O)C(CC1CCCCC1)NC(=O)C(Cc1cccnc1)c1nnc2c(CCC)nc(-c3cccnc3)cn12)C(C)C (centres undefined) |
